Consider five molecules from patent US20260265305A1, “POLYPEPTIDE DERIVATIVE FOR ORAL DELIVERY” (Hangzhou Sciwind Biosciences Co., Ltd., priority 2023, published 2026).

Series [1] has as its target T1, calcitonin receptor (hCTR) (Homo sapiens, UniProt P30988).
T1 construct: host or cells: CHO-K1/CALCR/Ga15 cells, further stably transfected with a CRE-luciferase plasmid
T1 sequence (P30988 25-474): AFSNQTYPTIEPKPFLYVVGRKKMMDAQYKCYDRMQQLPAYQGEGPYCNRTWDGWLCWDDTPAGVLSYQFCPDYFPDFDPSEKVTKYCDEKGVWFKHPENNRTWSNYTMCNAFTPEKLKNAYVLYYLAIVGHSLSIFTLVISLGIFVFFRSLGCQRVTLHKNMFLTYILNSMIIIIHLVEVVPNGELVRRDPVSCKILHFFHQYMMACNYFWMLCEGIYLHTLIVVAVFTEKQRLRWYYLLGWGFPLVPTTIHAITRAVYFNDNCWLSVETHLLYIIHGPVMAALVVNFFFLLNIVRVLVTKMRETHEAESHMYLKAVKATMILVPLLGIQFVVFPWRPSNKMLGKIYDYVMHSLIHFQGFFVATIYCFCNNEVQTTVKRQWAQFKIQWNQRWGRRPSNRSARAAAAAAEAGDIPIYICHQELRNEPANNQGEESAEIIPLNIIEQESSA
Kind of series: Calcitonin receptor agonism, CRE-luciferase assay in stably transfected CHO-K1/CALCR/Ga15 cells. It counts as cell-based. As to conditions: for Fold change in activity against hCTR: relative to D1 as benchmark; for EC50: incubation of 24 hours, Table 4, read-out: EC50, activity against the calcitonin receptor in cells.
Experimental: Using the standard protocol, CHO-K1/CALCR/Ga15 cells (purchased from GenScript, with the calcitonin receptor constructed already) were transfected with a plasmid containing a luciferase expression cassette driven by multiple copies of cAMP response elements (CREs). The cells were cultured in an F12 medium containing 200 ug/mL Zeocin, 2 ug/mL puromycin, and 100 ug/mL hygromycin to afford a stably transfected calcitonin receptor/CRE-luc cell line.
(§1) To each well of a white 96-well plate was added 50 μL of the tested sample solution at a respective concentration.
The stably transfected calcitonin receptor/CRE-luc CHO cells were resuspended in the growth medium at a certain density, and 50 μL of the cell suspension was added at a density of about 20,000 cells per well to the white 96-well plate containing the tested sample solution. After incubation of 24 hours at 37° C. and 5% CO2, 100 μL of a Luciferase substrate was added to each well, incubated for 3 minutes, and finally was tested for luminescence on SpectraMax L (Molecular Devices) with the software SoftMax Pro 7.0.3 GxP. A standard curve was plotted using the fluorescent intensities for calculation of EC50.

For series [2], the target named is T2, amylin receptor (hAMY3R) (Homo sapiens, UniProt O60896+P30988).
T2 construct: host or cells: CHO-K1/Ga15/AMY3 cells, further stably transfected with a CRE-luciferase plasmid
T2 sequence (P30988 25-474): T1 sequence (P30988 25-474)
T2 sequence (O60896 24-148): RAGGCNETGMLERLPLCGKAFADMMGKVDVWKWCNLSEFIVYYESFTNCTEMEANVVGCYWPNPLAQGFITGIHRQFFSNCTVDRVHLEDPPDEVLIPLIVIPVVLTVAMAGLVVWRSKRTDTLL
The series can be described thus: Amylin receptor agonism testing, CRE-luciferase assay in stably transfected CHO-K1/Ga15/AMY3 cells. Format: cell-based. As to conditions: for Fold change in activity against hAMY3R: relative to D1 as benchmark.
Text: The objective of this assay is to test the potency of the polypeptide derivatives in the present application on amylin and calcitonin receptors in vitro using a luciferase assay.
Using the standard protocol for construction of an amylin receptor/CRE-luc cell line, CHO-K1/Ga15/AMY3 cells (purchased from GenScript, with the calcitonin receptor and the receptor activity modifying peptide (RAMP) constructed already) were transfected with a plasmid containing a luciferase expression cassette driven by multiple copies of cAMP response elements (CREs). The cells were cultured in an F12 medium containing 200 ug/mL Zeocin, 2 ug/mL puromycin, 100 ug/mL hygromycin, and 400 ug/mL G418 to afford a stably transfected amylin receptor/CRE-luc cell line.
as §1
The stably transfected amylin receptor/CRE-luc CHO cells were resuspended in the growth medium at a certain density, and 50 μL of the cell suspension was added at a density of about 20,000 cells per well to the white 96-well plate containing the tested sample solution. After incubation of 24 hours at 37° C. and 5% CO2, 100 μL of a Luciferase substrate was added to each well, incubated for 3 minutes, and finally was tested for luminescence on SpectraMax L (Molecular Devices) with the software SoftMax Pro 7.0.3 GxP. A standard curve was plotted using the fluorescent intensities for calculation of EC50.

Series [3] can be described thus: Heat accelerated stability assay of polypeptide solutions (40° C., pH about 7.4), reversed phase chromatography. As to conditions: 40° C.; for Concentration change on 7 d / Concentration change on 26 d: pH about 7.4, 1 mg/mL; for Concentration change on 7 d / Purity change on 7 d: Day 7; for Concentration change on 26 d / Purity change on 26 d: Day 26; for Purity change on 7 d / Purity change on 26 d: reversed phase chromatography 214 nm; for Purity change on 7 d: purity on 7 d − purity on 0 d; for Purity change on 26 d: purity on 26 d − purity on 0 d. It counts as physicochemical. The gist of the method:
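Polypeptide derivative lyophilisate (1 mg/mL) with sodium dihydrogen phosphate (1.42 mg/mL) in water, pH about 7.4, sterile-filtered, vialed and held at 40° C; sampled on days 7 and 26. After centrifugation, concentration and purity (target/total peak area) by C18 RP-HPLC, TFA/ACN gradient, 280 and 214 nm.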

Like-named read-outs stand apart in the source and are kept apart here. Square brackets hold non-standard residues; d marks the D form. Peptide text beside a SMILES is read from it. * marks the point of attachment. C20 diacid = O=C(O)CCCCCCCCCCCCCCCCCCC(=O)*; C18 diacid = O=C(O)CCCCCCCCCCCCCCCCC(=O)*; Trx = NC[C@H]1CC[C@H](C(=O)O)CC1; AEEA = NCCOCCOCC(=O)O; Inp = O=C(O)C1CCNCC1

Regarding `CC(C)C[C@H](NC(=O)[C@H](CCCNC(=N)N)NC(=O)CNC(=O)[C@H](CC(C)C)NC(=O)[C@@H](NC(=O)[C@H](C)NC(=O)[C@@H](NC(=O)[C@H](CO)NC(=O)[C@H](CC(C)C)NC(=O)[C@H](CCC(N)=O)NC(=O)[C@H](CO)NC(=O)[C@H](C)NC(=O)[C@H]1CC[C@H](CNC(=O)CCCCCCCCCCCCCCCCCCC(=O)O)CC1)[C@@H](C)O)C(C)C)C(=O)N[C@@H](CO)C(=O)N[C@@H](CC(=O)O)C(=O)N[C@@H](CCC(=O)O)C(=O)N[C@@H](CC(C)C)C(=O)N[C@@H](Cc1c[nH]cn1)C(=O)N[C@@H](CCCNC(=N)N)C(=O)N[C@@H](CC(C)C)C(=O)N[C@@H](CCC(N)=O)C(=O)N[C@@H](CC(=O)O)C(=O)N[C@@H](Cc1ccc(O)cc1)C(=O)N1CCC[C@H]1C(=O)N[C@@H](CCCNC(=N)N)C(=O)N[C@H](C(=O)N[C@@H](CC(=O)O)C(=O)N[C@H](C(=O)NCC(=O)N[C@@H](CO)C(=O)NCC(=O)N[C@@H](CO)C(=O)N1CCC[C@H]1C(N)=O)C(C)C)[C@@H](C)O` [M14] ({C20 diacid-Trx}-ASQLSTAVLGRLSDELHRLQDYPRTDVGSGSP-NH2), the “Fold change in activity against hCTR” value in series [1] was 0.147. Besides, in series [2], the “Fold change in activity against hAMY3R” value is given as 0.079. Further, in series [3], the “Concentration change on 7 d” value was −3.464%, the “Concentration change on 26 d” value is −8.377%, the “Purity change on 7 d” value was “No change” and the “Purity change on 26 d” value was −1.77%.
With `CC(C)C[C@H](NC(=O)[C@H](CCCNC(=N)N)NC(=O)CNC(=O)[C@H](CC(C)C)NC(=O)[C@@H](NC(=O)[C@H](C)NC(=O)[C@@H](NC(=O)[C@H](CO)NC(=O)[C@H](CC(C)C)NC(=O)[C@H](CCC(N)=O)NC(=O)[C@H](CO)NC(=O)[C@H](C)NC(=O)[C@H]1CC[C@H](CNC(=O)CCCCCCCCCCCCCCCCC(=O)O)CC1)[C@@H](C)O)C(C)C)C(=O)N[C@@H](CO)C(=O)N[C@@H](CC(=O)O)C(=O)N[C@@H](CCC(=O)O)C(=O)N[C@@H](CC(C)C)C(=O)N[C@@H](Cc1c[nH]cn1)C(=O)N[C@@H](CCCNC(=N)N)C(=O)N[C@@H](CC(C)C)C(=O)N[C@@H](CCC(N)=O)C(=O)N[C@@H](CC(=O)O)C(=O)N[C@@H](Cc1ccc(O)cc1)C(=O)N1CCC[C@H]1C(=O)N[C@@H](CCCNC(=N)N)C(=O)N[C@H](C(=O)N[C@@H](CC(=O)O)C(=O)N[C@H](C(=O)NCC(=O)N[C@@H](CO)C(=O)NCC(=O)N[C@@H](CO)C(=O)N1CCC[C@H]1C(N)=O)C(C)C)[C@@H](C)O` [M15] ({C18 diacid-Trx}-ASQLSTAVLGRLSDELHRLQDYPRTDVGSGSP-NH2), the “Fold change in activity against hCTR” value in series [1] is recorded as 0.183. In series [2] (Table 5 integrated analysis, read-out: hAMY3R EC50), the EC50 (in general, the concentration giving half of the maximal effect) is 119 pM. For the same molecule, the “Fold change in activity against hAMY3R” value in series [2] was found to be 0.303. Also, in series [3], the “Concentration change on 7 d” value was “No change (concentration change of less than 1% (denoted as “no change”))”, the “Concentration change on 26 d” value was −10.824%, the “Purity change on 7 d” value is “No change” and the “Purity change on 26 d” value is recorded as −5.67%.
With `CC(C)C[C@H](NC(=O)[C@H](CCCNC(=N)N)NC(=O)CNC(=O)[C@H](CC(C)C)NC(=O)[C@@H](NC(=O)[C@H](C)NC(=O)[C@@H](NC(=O)[C@H](CO)NC(=O)[C@H](CC(C)C)NC(=O)[C@H](CCC(N)=O)NC(=O)[C@H](CO)NC(=O)[C@H](C)NC(=O)C1CCN(C(=O)CCCCCCCCCCCCCCCCCCC(=O)O)CC1)[C@@H](C)O)C(C)C)C(=O)N[C@@H](CO)C(=O)N[C@@H](CC(=O)O)C(=O)N[C@@H](CCC(=O)O)C(=O)N[C@@H](CC(C)C)C(=O)N[C@@H](Cc1c[nH]cn1)C(=O)N[C@@H](CCCNC(=N)N)C(=O)N[C@@H](CC(C)C)C(=O)N[C@@H](CCC(N)=O)C(=O)N[C@@H](CC(=O)O)C(=O)N[C@@H](Cc1ccc(O)cc1)C(=O)N1CCC[C@H]1C(=O)N[C@@H](CCCNC(=N)N)C(=O)N[C@H](C(=O)N[C@@H](CC(=O)O)C(=O)N[C@H](C(=O)NCC(=O)N[C@@H](CO)C(=O)NCC(=O)N[C@@H](CO)C(=O)N1CCC[C@H]1C(N)=O)C(C)C)[C@@H](C)O` [M16] ({C20 diacid-Inp}-ASQLSTAVLGRLSDELHRLQDYPRTDVGSGSP-NH2), in series [1], the EC50 was 376 pM and the “Fold change in activity against hCTR” value was 0.229. The “Fold change in activity against hAMY3R” value in series [2] came to 0.439. Moreover, in series [3], the “Concentration change on 7 d” value is listed as −2.883%, the “Concentration change on 26 d” value is given as −3.036%, the “Purity change on 7 d” value is recorded as 3.42% and the “Purity change on 26 d” value is 2.18%.
As to `CC(C)C[C@H](NC(=O)[C@H](CCCNC(=N)N)NC(=O)CNC(=O)[C@H](CC(C)C)NC(=O)[C@@H](NC(=O)[C@H](C)NC(=O)[C@@H](NC(=O)[C@H](CO)NC(=O)[C@H](CC(C)C)NC(=O)[C@H](CCC(N)=O)NC(=O)[C@H](CO)NC(=O)[C@H](C)NC(=O)C1CCN(C(=O)CCCCCCCCCCCCCCCCC(=O)O)CC1)[C@@H](C)O)C(C)C)C(=O)N[C@@H](CO)C(=O)N[C@@H](CC(=O)O)C(=O)N[C@@H](CCC(=O)O)C(=O)N[C@@H](CC(C)C)C(=O)N[C@@H](Cc1c[nH]cn1)C(=O)N[C@@H](CCCNC(=N)N)C(=O)N[C@@H](CC(C)C)C(=O)N[C@@H](CCC(N)=O)C(=O)N[C@@H](CC(=O)O)C(=O)N[C@@H](Cc1ccc(O)cc1)C(=O)N1CCC[C@H]1C(=O)N[C@@H](CCCNC(=N)N)C(=O)N[C@H](C(=O)N[C@@H](CC(=O)O)C(=O)N[C@H](C(=O)NCC(=O)N[C@@H](CO)C(=O)NCC(=O)N[C@@H](CO)C(=O)N1CCC[C@H]1C(N)=O)C(C)C)[C@@H](C)O` [M17] ({C18 diacid-Inp}-ASQLSTAVLGRLSDELHRLQDYPRTDVGSGSP-NH2), in series [1], the EC50 was 259 pM and the “Fold change in activity against hCTR” value is 0.332. Besides, the “Fold change in activity against hAMY3R” value in series [2] was 0.571. The “increase in the ratio of activity against the amylin receptor to agonistic activity against the calcitonin receptor” value in series [2] (relative to the benchmark D1) was 1.7 fold. Moreover, in series [3], the “Concentration change on 7 d” value is −1.927%, the “Concentration change on 26 d” value is recorded as −5.985%, the “Purity change on 7 d” value is listed as −1% and the “Purity change on 26 d” value is reported as −3.9%.
For the molecule `CC(C)C[C@H](NC(=O)[C@H](CCCNC(=N)N)NC(=O)CNC(=O)[C@H](CC(C)C)NC(=O)[C@@H](NC(=O)[C@H](C)NC(=O)[C@@H](NC(=O)[C@H](CO)NC(=O)[C@H](CC(C)C)NC(=O)[C@H](CCC(N)=O)NC(=O)[C@H](CO)NC(=O)[C@H](C)NC(=O)COCCOCCNC(=O)COCCOCCNC(=O)[C@H](CCC(=O)O)NC(=O)CCCCCCCCCCCCCCCCC(=O)O)[C@@H](C)O)C(C)C)C(=O)N[C@@H](CO)C(=O)N[C@@H](CC(=O)O)C(=O)N[C@@H](CCC(=O)O)C(=O)N[C@@H](CC(C)C)C(=O)N[C@@H](Cc1c[nH]cn1)C(=O)N[C@@H](CCCNC(=N)N)C(=O)N[C@@H](CC(C)C)C(=O)N[C@@H](CCC(N)=O)C(=O)N[C@@H](CC(=O)O)C(=O)N[C@@H](Cc1ccc(O)cc1)C(=O)N1CCC[C@H]1C(=O)N[C@@H](CCCNC(=N)N)C(=O)N[C@H](C(=O)N[C@@H](CC(=O)O)C(=O)N[C@H](C(=O)NCC(=O)N[C@@H](CO)C(=O)NCC(=O)N[C@@H](CO)C(=O)N1CCC[C@H]1C(N)=O)C(C)C)[C@@H](C)O` [M24] ({C18 diacid}-E[AEEA][AEEA]ASQLSTAVLGRLSDELHRLQDYPRTDVGSGSP-NH2), in series [1], the EC50 was 81 pM and the “Fold change in activity against hCTR” value is recorded as 1.061. For the same molecule, in series [2] (incubation of 24 hours, Table 3, read-out: EC50, activity against the amylin receptor in cells), the EC50 amounted to 7 pM. Also, in series [2], the “Fold change in activity against hAMY3R” value was determined as 5.143. Besides, in series [3], the “Concentration change on 26 d” value is recorded as −3.954%, the “Purity change on 7 d” value is given as −1.59% and the “Purity change on 26 d” value is reported as −7.24%.
